Where “and” joins values, the source holds several entries; their conditions need not be identical. Equal entries are not always repeated.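 Where inhibition never reached the appropriate level, the endpoint shown equals the highest concentration tested. Otherwise, values were interpolated linearly from a five-concentration, 48-hour dose response in 96-well plates. The concentration for 50% growth inhibition is given as GI50. TGI denotes the concentration required for complete inhibition of growth.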
What was measured:
Assay in all cases: inhibition of tumour cell growth, NCI panel, 48 h
[1] = tested on: HOP-92 NSCLC
[2] = tested on: OVCAR-8 ovarian
[3] = tested on: M14 melanoma
[4] = tested on: HCC-2998 colon
[5] = tested on: SF-295 CNS
[6] = tested on: HL-60(TB) leukemia
[7] = tested on: EKVX NSCLC
[8] = tested on: SK-MEL-28 melanoma

Structure (SMILES)	GI50 [1] [µM]	TGI [1] [µM]	GI50 [2]	TGI [2] [µM]	GI50 [3] [µM]	TGI [3]	GI50 [4]	TGI [4]	GI50 [5] [µM]	TGI [5]	GI50 [6] [µM]	TGI [6]	GI50 [7] [µM]	TGI [7]	GI50 [8] [µM]	TGI [8] [µM]
COc1c(O)c2c3c(c1OC)-c1ccccc1CC3N(S(=O)(=O)c1ccc(C)cc1)CC2 (stereo not drawn)	1.41	29	1.92 µM	> 50	1.81	> 50 µM	4.01 µM	34.1 µM	2.07	30.6 µM	1.18	7.46 µM	4.04	> 50 µM	2.51	> 50
COc1ccc(-c2cc(-c3ccccc3)nc(NCCNc3ccnc4cc(Cl)ccc34)n2)cc1	1.17	2.57							1.8	3.49 µM	1.72	3.62 µM	1.79	3.59 µM	1.73	3.35
Cn1ccnc1C(=O)/C=C/c1ccc(C(=O)Nc2c(F)c(F)c(F)c(F)c2F)cc1	2.11	7.33	1.72 µM	4.04	1.77	3.7 µM	1.64 µM	3.14 µM	1.85	3.64 µM	1.8	4.74 µM	2.36	5.85 µM	2.17	5.19
COc1ccc(/C=C/C(C)=N/OCC(=O)Nc2ccc(Cl)cc2)cc1	0.561	4.68	3.52 µM	29.5	3.01	14.1 µM	3.75 µM	15.8 µM	2.96	14.9 µM	2.55	10.5 µM			3.17	31.6
COc1cc(/C=C2\C(=O)N(C)c3ccccc32)cc(OC)c1OC	15.9	70.6	22.7 µM	95.2	16.8	46.9 µM	19 µM	44.4 µM	22.1	> 100 µM	7.26	> 100 µM	24.3	> 100 µM	16	44.4
C[C@]12CCC3=NCCN3C1=CC[C@@H]1[C@@H]2CC[C@@]2(C)[C@H]1CC[C@]2(C)O		> 100		> 100		> 100 µM				42.6 µM				> 100 µM		99.6
C=C(Cl)[C@@](Cl)(CBr)CC[C@@H](Br)C(C)(C)Cl		0.807				40.9 µM and 28.8 µM	1.27 µM	3.12 µM and 1.65 µM		2.46 µM and 0.452 µM	0.0686	> 100 µM and 10.5 µM		15.1 µM and 7 µM		
Cc1ccnc(Nc2ccc([N+](=O)[O-])c(NCCN3CCOCC3)n2)c1			0.0334 µM and 0.0201 µM	> 100		45.2 µM	0.0187 µM and 0.0171 µM	14.7 µM	0.00355	29.6 µM	0.0144	0.0464 µM	0.0292			30.3
O=C1CCS/C(=N/S(=O)(=O)c2ccc(N3N=C4c5ccccc5CC4C3c3cccs3)cc2)N1Cc1ccccc1 (stereo not drawn)	35.9	83.7	19.2 µM	39.3	15.3	30.1 µM	17.9 µM	33.2 µM	15.8	37.5 µM			25.7	65.8 µM	42.1	> 100
COC(=O)[C@H](Cc1cn(C)cn1)NC(=O)[C@@H](NC(=O)Nc1cc(C(F)(F)F)cc(C(F)(F)F)c1)C(C)C	5.48	> 10	2.16 µM	5.22	8.62	> 10 µM	1.81 µM	3.46 µM	> 10	> 10 µM	> 10	> 10 µM			2.05	4.99
O=C(Oc1ccc2c(c1)CN(Cc1ccccc1)CO2)c1ccccc1		28.2		32.9		32 µM		28.2 µM		38.4 µM				33.4 µM		41.2
Oc1ccccc1C=Nc1nc(OCc2ccccc2)nc2[nH]ncc12	11.7	43.7	44.3 µM	> 100	21.6	57.7 µM	20.2 µM	38.1 µM	19.9	39.3 µM			30.1	97.8 µM	22.2	43.1
c1cncc(C2ONC3=NCCN32)c1 (stereo not drawn)			27.4 µM	> 100	64.3	> 100 µM	27.1 µM	94.5 µM	33.3	> 100 µM			23.2	> 100 µM	> 100	> 100
Nc1ncc(C2[C@H](CNC(=O)c3cc(Br)c[nH]3)C(CNC(=O)c3cc(Br)c[nH]3)[C@@H]2c2cnc(N)[nH]2)[nH]1 (stereo partly drawn)	43.7	> 50	> 50 µM	> 50	> 50	> 50 µM	> 50 µM	> 50 µM	> 50	> 50 µM			5.56	45.6 µM		
O=C(c1ccccc1)C(Br)C(Br)c1ccccc1 (stereo not drawn)	2.53	6	4.12 µM	13.3	2.01	4.12 µM	13.3 µM	26.3 µM	11.9	27.7 µM			14.6	32.7 µM	3.59	13
C=C1CC/C=C(\C)CC[C@H](C(=C)C)[C@@H](O)/C=C(/CO)CCC1O (stereo partly drawn)			> 100 µM	> 100	71.7	> 100 µM	> 100 µM	> 100 µM	71.9	> 100 µM			60.4	> 100 µM	> 100	> 100
N/C(=N\C(N)=N\c1nc2ccccc2s1)c1cnccn1	3.05	16.1	3.11 µM	26.5	3.21	> 100 µM			3.19	22.6 µM	2.68	51.5 µM	4.08	> 100 µM	2.3	6.06
O=C(N/N=C/c1ccc(F)cc1)c1ccc(C(F)(F)F)nc1Nc1cccc(C(F)(F)F)c1			1.7 µM	6.62	0.916	10.1 µM	0.902 µM	4.96 µM	0.744	2.69 µM	0.827	3.72 µM	0.713	4.64 µM	1.79	7.92
Cc1ccc(C2=C(Cl)C(=O)C(c3ccc(C)cc3)=C(Cl)C2=O)cc1		> 100		> 100		> 100 µM				> 100 µM		> 100 µM		> 100 µM		> 100
O=C(Nc1ccc(C(F)(F)F)cc1[N+](=O)[O-])c1cccnc1						> 100 µM		> 100 µM		23.9 µM		> 100 µM		> 100 µM		> 100
Nc1ncnc2c1nc(Cl)n2C1OC(CO)C(O)C1O (stereo not drawn)		> 66.2		> 100		> 100 µM				> 100 µM		3.97 µM		> 71.1 µM		> 100
COc1cccc(C2C(C#N)=C(N)Oc3cc4c(cc32)OCO4)c1 (stereo not drawn)			0.0956 µM	> 36.2	0.059	16.3 µM	0.0813 µM	2.52 µM	0.035	22 µM	0.029	0.279 µM	0.28	58.8 µM	0.0813	32.6
O=c1[nH]c2ccc([N+](=O)[O-])c(Cl)c2c2ccccc12				3.56		> 100 µM		23.6 µM		9.18 µM		16.6 µM		19.9 µM		25.8
Clc1ccc2c(NCCCN3CCN(c4nc(N5CCOCC5)nc5ccccc45)CC3)ccnc2c1			1.98 µM	4.47	1.39	2.85 µM	1.77 µM	3.28 µM			1.35	3.95 µM			1.88	3.37
O=C(O)Cn1ccc(=O)c2cc([N+](=O)[O-])ccc21				> 100		> 100 µM		> 100 µM		> 100 µM		> 100 µM				> 100
O=C(OC[C@@H]1CO1)c1cccc2c(=O)c3ccccc3[nH]c12	0.444	5.02	0.166 µM	2.78	0.344	1.65 µM	0.312 µM	1.25 µM	0.432	2.5 µM			0.856	3.72 µM	0.396	2.07
COc1cc(/C=C\c2cc(OC)c(OC)c(OC)c2)cc(NS(=O)(=O)c2ccc(Cl)cc2)c1OC	0.72	72.3	0.6 µM	> 100	0.391	22.9 µM	1.98 µM	> 100 µM	0.319	84 µM	0.249	0.694 µM			1.14	> 100
CCCCC[C@@H](C/C=C/CCC(=O)NC/C(=C/Cl)[C@H]1C(=O)C(C)(C)C(=O)[C@@H](C)[C@@]1(C)O)OC	19.2	38.2	18.6 µM	36.1	16.9	31.2 µM			13.5	26.4 µM	19.1	40.6 µM	13.5	30.5 µM	18.1	33.8

— PubChem BioAssay (NCI)
